Data taken from patent US20140221324A1, “COMPOSITION FOR THE REDUCTION OF DRIP LOSSES IN PORK” (DSM IP ASSETS B.V., priority 2008, published 2014).

Key:
Assay type in all cases: in vivo, pig (Large-White x Landrace)
growing-fattening pig [1] = assay: Carcass cold yield after long-term dietary supplementation of growing-fattening pigs; conditions: for carcasses' cold yield, value in brackets relative to group A (100): index, group A (2000 IU/kg D3) = 100; for carcasses' cold yield: pigs fed supplemented diet (2000 IU/kg D3 or 50 μg/kg 25-OH D3), carcass weighed after 24 h at +4° C., mean ± SD of 20 determinations
Description: (§1) Fifty 28-d old Large-White x Landrace weaner piglets having an initial body weight of 7.9±0.74 kg were used. The animals were allocated into two equal groups (A and B) and housed in cages in sub-groups (two of 8 and one of 9 animals) in an environmentally controlled room. […] Room temperature was initially 27° C. and was lowered weekly by about 2° C. until 21-22° C. Environment humidity percentage throughout the experiment was 50%. The experiments were performed in the facilities of the Centre de Recherche en Nutrition Animate (CRNA), DSM Nutritional Products France, BP 170, 68305 Saint-Louis cedex, France. They have been performed according to the French legal regulations on experiments with live animals.
(§2) Each group of animals was fed either a basal diet with the addition of 2000 IU/kg of vitamin D3 (group A) or the basal diet, without vitamin D3, and supplemented with 50 μg/kg of 25-hydroxycholecalciferol (Rovimix® Hy•D® commercially available from DSM Nutritional Products) (group B).
(§3) At the end of the post-weaning phase the twenty heaviest animals of each group were used for the growing-fattening period. […] Room temperature was 21-22° C. and humidity percentage was 50%.
(§4) The pigs were fed for 87 days a diet supplemented either with 2000 IU/kg of vitamin D3 (group A, animals ingesting during the post-weaning phase 2000 U/kg) or with 50 μg/kg of 25-hydroxycholecalciferol (group B, animals ingesting during the post-weaning phase 50 μg/kg). The basal diet (Table 2) was formulated to meet the animals' requirements according to Henry et al. 1989 In: L'alimentation des animaux domestiques—pore, lapin, volailles INRA), 2ème édition, INRA, Paris, 49-76 and NRC, 1998. Nutrient requirements of swine, 10th revised edition, National Academic Press. Washington DC, U.S.A.
At the end of the experiment, all animals were randomly divided into four different lots and assigned to one slaughter campaign: days 84th, 85th, 86th and 87th. Animals of each lot were fasted for 12 hours and weighed just before they were slaughtered after tranquilization and stunning. The carcasses were sawed longitudinally following the spinal canal and weighed after 24 hours storage at +4° C. to estimate the carcasses' cold yield.
(§5) Statistical treatment of the results involved the calculation of the mean and the standard deviation of the mean as well as a two-factor hierarchical analysis of variance at 95% confidence level.

growing-fattening pig [2] = assay: Carcass lean/fat ratio after long-term dietary supplementation of growing-fattening pigs; conditions: for carcasses' lean/fat ratio, value in brackets relative to group A (100): index, group A (2000 IU/kg D3) = 100; for carcasses' lean/fat ratio: pigs fed supplemented diet (2000 IU/kg D3 or 50 μg/kg 25-OH D3), mean ± SD of 20 determinations
Description: as §1, §2, §3, §4
In the second mid-carcass lean and fat were measured at three different points with a caliper square tool. Muscular depth was measured after dissection of the ilio-spinalis muscle (longissimus dorsi) at the level of the 4th dorsal vertebrae. The sub-cutaneous back fat deposition was measured at the levels of the 4th dorsal and lumbar vertebras. These measures were used to estimate the carcasses' lcan/fat ratio.
as §5

[3] = tested on: ilio-spinalis (longissimus dorsi) muscle; assay: pH of the ilio-spinalis (longissimus dorsi) muscle at slaughter and after 24 h storage; conditions: for pH after 24 h / pH at slaughter: ilio-spinalis muscle, mean ± SD of 20 determinations; for pH after 24 h: after 24 hours storage at +4° C.; for pH at slaughter: measured immediately; for pH after 24 h, value in brackets relative to group A (100) / pH at slaughter, value in brackets relative to group A (100): index
Description: as §1, §2, §3, §4
(§6) In one of the mid-carcass, the entire ilio-spinalis muscle (longissimus dorsi) was dissected. Each muscle was weighed and pH was measured immediately and after 24 hours storage at +4° C. The muscles were individually conditioned into inflated plastic bags for water recovery during storage. Percentage of drip loses from muscles was estimated by weight difference and water recovery.
as §5

[4] = tested on: ilio-spinalis (longissimus dorsi) muscle; assay: Drip losses of the ilio-spinalis (longissimus dorsi) muscle; conditions: for Drip loss by water recovery / Drip loss by weight difference: ilio-spinalis muscle, mean ± SD of 20 determinations; for Drip loss by water recovery: 24 h storage at +4° C. in plastic bags; for Drip loss by weight difference: 24 h storage at +4° C.; for Drip loss by water recovery, value in brackets relative to group A (100) / Drip loss by weight difference, value in brackets relative to group A (100): index
Description: as §1, §2, §3, §4, §6, §5

[5] = dietary supplementation vs. vitamin D3 control group

| Compound | effect on the cold yield of the carcasses (in words) (growing-fattening pig [1]; [5]) | carcasses' cold yield, value in brackets relative to group A (100) (growing-fattening pig [1]) | carcasses' cold yield (growing-fattening pig [1]) | effect on the lean/fat ratio of the carcasses (in words) (growing-fattening pig [2]; [5]) | carcasses' lean/fat ratio, value in brackets relative to group A (100) (growing-fattening pig [2]) | carcasses' lean/fat ratio (growing-fattening pig [2]) | pH values immediately after slaughter and after 24 hours storage compared to control group (in words) ([3]; ilio-spinalis muscle segments) | pH after 24 h [3] | pH at slaughter [3] | pH after 24 h, value in brackets relative to group A (100) [3] | pH at slaughter, value in brackets relative to group A (100) [3] | Drip loss by water recovery [4] | Drip loss by weight difference [4] | Drip loss by water recovery, value in brackets relative to group A (100) [4] | Drip loss by weight difference, value in brackets relative to group A (100) [4] | mass lost from muscular segments (in words) ([4]; vs. control group) | water volumes recovered from muscular segments (in words) ([4]; vs. control group) |
| --- | --- | --- | --- | --- | --- | --- | --- | --- | --- | --- | --- | --- | --- | --- | --- | --- | --- |
| C=C1CC[C@H](O)C/C1=C/C=C1\CCC[C@]2(C)[C@@H]([C@H](C)CCCC(C)(C)O)CC[C@@H]12 [25-OH D3, 25-hydroxycholecalciferol] | no positive effects | (99) | 81.11 ± 1.71 % of live weight | no positive effects | (99) | 67.70 ± 2.99% | similar | 5.51 ± 0.04 | 5.89 ± 0.16 | (100) | (101) | 0.45 ± 0.23% | 1.51 ± 0.28% | (58) | (78) | less mass was lost | clearly smaller water volumes were recovered |
| C=C1CC[C@H](O)C/C1=C/C=C1\CCC[C@]2(C)[C@@H]([C@H](C)CCCC(C)C)CC[C@@H]12 [D3, vitamin D3] | – | (100) | 81.85 ± 0.76^(1) % of live weight | – | (100) | 68.42 ± 2.26^(1) % | – | 5.49 ± 0.05^(1) | 5.85 ± 0.21^(1) | (100) | (100) | 0.78 ± 0.74^(1) % | 1.94 ± 0.85^(1) % | (100) | (100) | – | – |
